# From patent publication US7473790B2 (Pfizer Inc., priority 2003, dated 2009)
# Target: T1, HCV polymerase (Hepatitis C virus genotype 1b, UniProt P26663)
# T1 construct: 2.5 pmoles (0.15 μg) HCV polymerase protein in a final volume of 75 μL
# Test: HCV polymerase primer/template-directed transcription assay (32P-GTP incorporation, filter binding)
# Assay type: biochemical
# Conditions: for IC50: recombinant HCV polymerase, 30 minutes at 30° C., concentration giving 50% inhibition of polymerase-directed transcription, read-out: IC50
# Procedure, shortened: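 Recombinant genotype 1b polymerase (30 nM) extended biotin-dG12 primer on poly(rC)300 template with 1 μM GTP plus α-32P-GTP, pH 7.2, 10 mM MgCl2, 30 min at 30° C, 1% DMSO final. Products captured on DE filters and counted. IC50 fitted from triplicate cpm, with a tight-binding correction applied below 200 nM.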
# T1 sequence (P26663 2420-3010): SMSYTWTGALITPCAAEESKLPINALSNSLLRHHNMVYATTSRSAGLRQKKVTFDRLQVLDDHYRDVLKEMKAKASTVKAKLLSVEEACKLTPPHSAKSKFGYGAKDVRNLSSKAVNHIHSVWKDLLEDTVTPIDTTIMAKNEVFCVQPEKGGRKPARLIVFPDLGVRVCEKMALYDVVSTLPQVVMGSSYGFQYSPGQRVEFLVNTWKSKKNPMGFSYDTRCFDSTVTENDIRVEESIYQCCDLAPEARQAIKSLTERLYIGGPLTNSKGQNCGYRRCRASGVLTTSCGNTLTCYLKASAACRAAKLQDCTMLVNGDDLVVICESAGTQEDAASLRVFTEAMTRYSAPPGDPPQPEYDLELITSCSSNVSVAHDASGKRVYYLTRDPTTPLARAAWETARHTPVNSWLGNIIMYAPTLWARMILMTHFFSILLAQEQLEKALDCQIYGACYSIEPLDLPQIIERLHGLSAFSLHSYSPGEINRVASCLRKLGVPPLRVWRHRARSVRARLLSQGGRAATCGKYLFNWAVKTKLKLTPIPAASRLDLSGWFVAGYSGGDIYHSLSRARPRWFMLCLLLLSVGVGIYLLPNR
SMILES,IC50,"inhibition at 50 µM (@ 50 uM compound, given where IC50 was impractical to calculate, read-out: percent inhibition)"
"Cc1cnc2nc(CC3=C(O)CC(CCc4ccc(C(C)(C)C#N)c(Cl)c4)(C4CCCC4)OC3=O)nn2c1 (stereo not shown) [A(199), 2-(2-Chloro-4-{2-[2-cyclopentyl-4-hydroxy-5-(6-methyl-[1,2,4]triazolo[1,5-a]pyrimidin-2-ylmethyl)-6-oxo-3,6-dihydro-2H-pyran-2-yl]-ethyl}-phenyl)-2-methyl-propionitrile]",10 nM,–
"COc1ccc(CCC2(C3CCCC3)CC(O)=C(Sc3nnc(-c4ccco4)n3C)C(=O)O2)cc1Cl (stereo not shown) [C(42), 6-[2-(3-chloro-4-methoxyphenyl)ethyl]-6-cyclopentyl-3-{[5-(2-furyl)-4-methyl-4H-1,2,4-triazol-3-yl]thio}-4-hydroxy-5,6-dihydro-2H-pyran-2-one]",13 nM,–
"CCc1ccc(O)c(CCC2(C3CCCC3)CC(O)=C(Cc3nc4ncc(C)cn4n3)C(=O)O2)c1 (single isomer, unassigned; enantiomer 2) [A(175), Enantiomer 2 of 6-Cyclopentyl-6-[2-(5-ethyl-2-hydroxy-phenyl)-ethyl]-4-hydroxy-3-(6-methyl-[1,2,4]triazolo[1,5-a]pyrimidin-2-ylmethyl)-5,6-dihydro-pyran-2-one]",9 nM,–
"COc1ccc(CCC2(C3CCCC3)CC(O)=C(Cc3nc(C)cc(=O)[nH]3)C(=O)O2)cc1Cl (stereo not shown) [B(54), 2-({6-[-(3-chloro-4-methoxyphenyl)ethyl]-6-cyclopentyl-4-hydroxy-2-oxo-5,6-dihydro-2H-pyran-3-yl}methyl)-6-methylpyrimidin-4(3H)-one]",300 nM,–
"Cc1cc(C)n2nc(CC3=C(O)CC(CCc4ccc(OC(C)C)c(Cl)c4)(C4CCCC4)OC3=O)nc2n1 (stereo not shown) [B(31), 6-[2-(3-Chloro-4-isopropoxy-phenyl)-ethyl]-6-cyclopentyl-3-(5,7-dimethyl-[1,2,4]triazolo[1,5-a]pyrimidin-2-ylmethyl)-4-hydroxy-5,6-dihydro-pyran-2-one]",3 nM,–
"O=C1CC(=O)OC(CCc2ccc3c(c2)OC(F)(F)C(F)(F)O3)(C2CCCC2)C1 (stereo not shown) [A(59), 6-Cyclopentyl-6-[2-(2,2,3,3-tetrafluoro-2,3-dihydro-benzo[1,4]dioxin-6-yl)-ethyl]-dihydro-pyran-2,4-dione]",3200 nM,–
"C[C@H](O)c1ccc(CCC2(C3CCCC3)CC(=O)CC(=O)O2)cc1 (stereo partly shown) [A(36), 6-Cyclopentyl-6-{2-[4-(1-hydroxy-ethyl)-phenyl]-ethyl}-dihydro-pyran-2,4-dione]",8400 nM,–
"Cc1cc(C)n2nc(CC3=C(O)CC(CCc4ccc(O)c(C5CCCC5)c4)(C4CCCC4)OC3=O)nc2n1 (stereo not shown) [A(135), 6-cyclopentyl-6-[2-(3-cyclopentyl-4-hydroxyphenyl)ethyl]-3-[(5,7-dimethyl[1,2,4]triazolo[1,5-a]pyrimidin-2-yl)methyl]-4-hydroxy-5,6-dihydro-2H-pyran-2-one]",15 nM,–
"COC(=O)Nc1cc(CC2=C(O)CC(CCc3ccc(OC)cc3)(C3CCCC3)OC2=O)on1 (stereo not shown) [B(60), Methyl 5-({6-cyclopentyl-4-hydroxy-6-[2-(4-methoxyphenyl)ethyl]-2-oxo-5,6-dihydro-2H-pyran-3-yl}methyl)isoxazol-3-ylcarbamate]",540 nM,–
"CCc1cc(CCC2(C3CCCC3)CC(O)=C(Cc3nc4nc(C)ccn4n3)C(=O)O2)ccc1O (stereo not shown) [A(229), 6-cyclopentyl-6-[2-(3-ethyl-4-hydroxyphenyl)ethyl]-4-hydroxy-3-[(5-methyl[1,2,4]triazolo[1,5-a]pyrimidin-2-yl)methyl]-5,6-dihydro-2H-pyran-2-one]",10 nM,–
"Cc1cnc2nc(CC3=C(O)CC(CCc4ccc(O)c(CC(F)(F)F)c4)(C4CCCC4)OC3=O)nn2c1 (stereo not shown) [A(224), 6-cyclopentyl-4-hydroxy-6-{2-[4-hydroxy-3-(2,2,2-trifluoroethyl)phenyl]ethyl}-3-[(6-methyl[1,2,4]triazolo[1,5-a]pyrimidin-2-yl)methyl]-5,6-dihydro-2H-pyran-2-one]",4 nM,–
Cc1cnc2nc(CC3=C(O)CC(CCc4cc(F)c(C5(C#N)CC5)c(F)c4)(C4CCCC4)OC3=O)nn2c1 (stereo not shown) [A(254)],12 nM,–
"COc1cc(OC)c(CCC2(C3CCCC3)CC(O)=C(Sc3nnc(CCN4CCOCC4)n3C)C(=O)O2)cc1Cl (stereo not shown) [C(90), 6-[2-(5-chloro-2,4-dimethoxyphenyl)ethyl]-6-cyclopentyl-4-hydroxy-3-{[4-methyl-5-(2-morpholin-4-ylethyl)-4H-1,2,4-triazol-3-yl]thio}-5,6-dihydro-2H-pyran-2-one]",40 nM,–
"COc1ccc(CCC2(C3CCCC3)CC(O)=C(Sc3nc4cncnc4[nH]3)C(=O)O2)cc1Cl (stereo not shown) [C(65), 6-[2-(3-chloro-4-methoxyphenyl)ethyl]-6-cyclopentyl-4-hydroxy-3-(9H-purin-8-ylthio)-5,6-dihydro-2H-pyran-2-one]",54 nM,–
"CCc1cc(CCC2(C3CCCC3)CC(O)=C(Cc3nc4ncc(Cl)cn4n3)C(=O)O2)cc(CC)c1O (stereo not shown) [A(231), 3-[(6-chloro[1,2,4]triazolo[1,5-a]pyrimidin-2-yl)methyl]-6-cyclopentyl-6-[2-(3,5-diethyl-4-hydroxyphenyl)ethyl]-4-hydroxy-5,6-dihydro-2H-pyran-2-one]",6 nM,–
"Cc1noc(C)c1-c1ccc(CCC2(C3CCCC3)CC(=O)CC(=O)O2)cc1 (stereo not shown) [A(18), 6-Cyclopentyl-6-{2-[4-(3,5-dimethyl-isoxazol-4-yl)-phenyl]-ethyl}-dihydro-pyran-2,4-dione]",3100 nM,–

SMILES,IC50,"inhibition at 50 µM (@ 50 uM compound, given where IC50 was impractical to calculate, read-out: percent inhibition)"
"COc1cc(OC)c(CCC2(C3CCCC3)CC(O)=C(Sc3nnc(-c4cccnc4)[nH]3)C(=O)O2)cc1Cl (stereo not shown) [C(75), 6-[2-(5-chloro-2,4-dimethoxyphenyl)ethyl]-6-cyclopentyl-4-hydroxy-3-[(5-pyridin-3-yl-4H-1,2,4-triazol-3-yl)thio]-5,6-dihydro-2H-pyran-2-one]",44 nM,–
Cc1cc(C)n2nc(CC3=C(O)CC(CCc4ccc(OC(C)C)c(F)c4)(C4CCCC4)OC3=O)nc2n1 (stereo not shown) [B(18)],21 nM,–
"O=C1CC(=O)OC(CSc2ncccn2)(C2CCCC2)C1 (stereo not shown) [I(1), 6-cyclopentyl-6-[(pyrimidin-2-ylthio)methyl]dihydro-2H-pyran-2,4(3H)-dione]",–,27%
"O=C1CC(=O)OC(CCC#Cc2ccccc2OC(F)(F)F)(C2CCCC2)C1 (stereo not shown) [F(4), 6-Cyclopentyl-6-[4-(2-trifluoromethoxy-phenyl)-but-3-ynyl]-dihydro-pyran-2,4-dione]",5800 nM,–
"COc1ccc(CCC2(C3CCCC3)CC(O)=C(Sc3nncn3C)C(=O)O2)cc1Cl (stereo not shown) [C(102), 6-[2-(3-chloro-4-methoxyphenyl)ethyl]-6-cyclopentyl-4-hydroxy-3-[(4-methyl-4H-1,2,4-triazol-3-yl)thio]-5,6-dihydro-2H-pyran-2-one]",38 nM,–
"Cc1cc(C)n2nc(CC3C(=O)CC(CCc4ccc(C(C)C)cc4)(C4CCCC4)OC3=O)nc2n1 (stereo not shown) [B(50), 6-cyclopentyl-3-[(5,7-dimethyl[1,2,4]triazolo[1,5-a]pyrimidin-2-yl)methyl]-6-[2-(4-isopropylphenyl)ethyl]dihydro-2H-pyran-2,4(3H)-dione]",90 nM,–
"CSc1ccccc1C#CCCC1(C2CCCC2)CC(=O)CC(=O)O1 (stereo not shown) [F(3), 6-Cyclopentyl-6-[4-(2-methylsulfanyl-phenyl)-but-3-ynyl]-dihydro-pyran-2,4-dione]",8400 nM,–
"Cc1cc(C)n2nc(CC3=C(O)CC(CCc4ccc(C5(C#N)CC5)c(F)c4)(C4CCCC4)OC3=O)nc2n1 (stereo not shown) [B(76), 1-(4-{2-[2-Cyclopentyl-5-(5,7-dimethyl-[1,2,4]triazolo[1,5-a]pyrimidin-2-ylmethyl)-4-hydroxy-6-oxo-3,6-dihydro-2H-pyran-2-yl]-ethyl}-2-fluoro-phenyl)-cyclopropanecarbonitrile]",1 nM,–
"COc1ccc(CCC2(C3CCCC3)CC(O)=C(Sc3nccn3C)C(=O)O2)cc1Cl (stereo not shown) [C(101), 6-[2-(3-chloro-4-methoxyphenyl)ethyl]-6-cyclopentyl-4-hydroxy-3-[(1-methyl-1H-imidazol-2-yl)thio]-5,6-dihydro-2H-pyran-2-one]",140 nM,–
"CCc1ccc(O)c(CCC2(C3CCCC3)CC(O)=C(Cc3nc4ncc(C)cn4n3)C(=O)O2)c1 (single isomer, unassigned; enantiomer 1) [A(174), Enantiomer 1 of 6-Cyclopentyl-6-[2-(5-ethyl-2-hydroxy-phenyl)-ethyl]-4-hydroxy-3-(6-methyl-[1,2,4]triazolo[1,5-a]pyrimidin-2-ylmethyl)-5,6-dihydro-pyran-2-one]",6 nM,–
"CC(C)(CNC(=O)CCc1ccco1)c1cccc(CCC2(C3CCCC3)CC(=O)CC(=O)O2)c1 (stereo not shown) [A(72), N-(2-{3-[2-(2-Cyclopentyl-4,6-dioxo-tetrahydro-pyran-2-yl)-ethyl]-phenyl}-2-methyl-propyl)-3-furan-2-yl-propionamide]",1500 nM,–
"CCc1cc(CCC2(C3CCCC3)CC(=O)CC(=O)O2)ccc1F (stereo not shown) [A(65), 6-cyclopentyl-6-[2-(3-ethyl-4-fluorophenyl)ethyl]dihydro-2H-pyran-2,4(3H)-dione]",1300 nM,–
"COc1cc(OC)c(CCC2(C3CCCC3)CC(O)=C(Sc3nc4cc(Cl)ccc4n3C)C(=O)O2)cc1Cl (stereo not shown) [C(63), 6-[2-(5-chloro-2,4-dimethoxyphenyl)ethyl]-3-[(5-chloro-1-methyl-1H-benzimidazol-2-yl)thio]-6-cyclopentyl-4-hydroxy-5,6-dihydro-2H-pyran-2-one]",8 nM,–
"COc1cccc(-c2nnc(SC3=C(O)CC(CCc4cc(Cl)c(OC)cc4OC)(C4CCCC4)OC3=O)n2C)c1 (stereo not shown) [C(79), 6-[2-(5-chloro-2,4-dimethoxyphenyl)ethyl]-6-cyclopentyl-4-hydroxy-3-{[5-(3-methoxyphenyl)-4-methyl-4H-1,2,4-triazol-3-yl]thio}-5,6-dihydro-2H-pyran-2-one]",63 nM,–
"CCc1ccc(OCCOC)c(CCC2(C3CCCC3)CC(=O)CC(=O)O2)c1 (stereo not shown) [A(178), 6-Cyclopentyl-6-{2-[5-ethyl-2-(2-methoxy-ethoxy)-phenyl]-ethyl}-dihydro-pyran-2,4-dione]",1300 nM,–
